Data on one compound can be found in the NIST ThermoML archive (doi:10.1016/j.tca.2016.03.016).

The nature of data set [1]: Molar enthalpy of transition or fusion. Conditions: DSC.

SMILES strings stand for the structures. ± gives the expanded uncertainty stated by the source.

For `CC(C)(CO)CO` [2,2-dimethyl-1,3-propanediol], the Normal melting temperature (Crystal 1, DTA) was 128.50 ± 1.1 °C. For the same compound, the Triple point temperature (Crystal 2, DSC) came to 314.95 ± 1.2 K. Further, the results for the “Molar enthalpy of transition or fusion” value in data set [1] (Crystal 1) and in data set [1] (Crystal 2) were 0.951 ± 0.0526 kcal/mol and 2.65 ± 0.124 kcal/mol, respectively.
